Values quoted from earlier work as cited in US20050222163A1, “Combinations of signal transduction inhibitors” (PFIZER INC, priority 2004, published 2005).

Key:
[1] = system: phosphorylated ERK1 and ERK2; conditions: background statement, result in words
[2] = comparison with predecessor CI-1040, result in words

Row | SMILES | levels of phosphorylated ERK1 and ERK2 [1] | metabolic stability relative to CI-1040 [2]
1 | O=C(NOCC1CC1)c1ccc(F)c(F)c1Nc1ccc(I)cc1Cl [CI-1040, 2-(2-Chloro-4-iodo-phenylamino)-N-cyclopropylmethoxy-3,4-difluoro-benzamide, reference compound] | significant decrease | –
2 | O=C(NOC[C@H](O)CO)c1ccc(F)c(F)c1Nc1ccc(I)cc1F [N-[(R)-2,3-Dihydroxy-propoxy]-3,4-difluoro-2-(2-fluoro-4-iodo-phenylamino)-benzamide] | significantly inhibits the phosphorylation of ERK1 and ERK2 | metabolically more stable
